Reference: patent US6750244B2, “Compounds active at a novel site on receptor-operated calcium channels useful for treatment of neurological disorders and diseases” (NPS Pharmaceuticals, Inc., priority 1993, dated 2004)
Several values for one entry are separate records, joined by “and”; a condition that tells them apart may be missing. Equal entries are not always repeated. Structures can show the parent of a compound that is named as a salt. Where two headings read alike, the source gives them in different places. Marks after values point to notes of the source that are not given here.

Key:
[1] = molecular target: NMDA receptor-ionophore complex (site labeled by [3H]MK-801); assay: Inhibition of [3H]MK-801 binding in rat cortical/hippocampal washed membrane preparations; details: for IC50: read-out: IC50 (μM) vs. [3H]MK-801, rat cortical/hippocampal washed membranes
NMDA receptor = assay: Inhibition of NMDA/glycine-induced increases in intracellular calcium in cultured rat cerebellar granule cells (RCGC); type: cell-based
[2] = NMDA/glycine-induced increases in intracellular calcium, cultured rat cerebellar granule cells; read-out: IC50 (μM) vs. NMDA

NCCc1ccccc1Oc1ccccc1 [Compound 132]
IC50 [1]: 6.4 µM
IC50 (NMDA receptor; [2]): 1.3 µM

Cc1ccccc1OC(CCN)c1cccc(F)c1 (stereo not drawn) [Compound 181]
IC50 [1]: 0.632 µM
IC50 (NMDA receptor; [2]): 0.081 µM

COc1ccc(C(CCN)c2cccc(F)c2)cc1 (stereo not drawn) [Compound 26, 3-(3-fluorophenyl)-3-(4-methoxyphenyl)-1-propylamine]
IC50 [1]: 34 µM
IC50 (NMDA receptor; [2]): 27 µM

CN(C)CCC(c1ccccc1)c1ccccn1 (stereo not drawn) [pheniramine, reference compound]
IC50 (NMDA receptor; [2]): 22 µM

CC(C)C(CCN)c1cccc(F)c1 (stereo not drawn) [Compound 37]
IC50 [1]: 11.1 µM
IC50 (NMDA receptor; [2]): 0.944 µM

NCCN(c1ccccc1)c1ccccc1 [Compound 117]
IC50 [1]: 6 µM
IC50 (NMDA receptor; [2]): 19.6 µM

CNCCC(c1cccc(F)c1)c1cccc(OC)c1 (stereo not drawn) [Compound 142]
IC50 [1]: 1.54 µM
IC50 (NMDA receptor; [2]): 1.01 µM

COc1ccc(C(CCN)c2cccc(F)c2)cc1F (racemic) [Compound 173, (R,S)-3-(3-Fluoro-4-methoxy)-3-(3-fluorophenyl)propylamine maleate]
IC50 [1]: 24.1 µM
IC50 (NMDA receptor; [2]): 22.9 µM

Fc1cccc(C(c2cccc(F)c2)C2CCCNC2)c1 (stereo not drawn) [Compound 111]
IC50 [1]: 0.167 µM
IC50 (NMDA receptor; [2]): 0.645 µM and 0.79 µM

NCCC(c1ccc(F)cc1)c1ccc(F)cc1 [Compound 77, 3,3-bis(4-fluorophenyl)-1-propylamine]
IC50 (NMDA receptor; [2]): 5.5 µM

CCC(CC)(CN)C(c1cccc(F)c1)c1cccc(F)c1 [Compound 80, 3,3-bis(3-fluorophenyl)-2,2-diethyl-1-propylamine]
IC50 [1]: 182 µM
IC50 (NMDA receptor; [2]): 28 µM

NCC(c1ccccc1)c1ccccc1 [2,2-diphenylethylamine, reference compound]
IC50 (NMDA receptor; [2]): 24.5 µM

COc1ccccc1CC(=O)NCCCOCCCCOCCCN [Compound 18]
IC50 [1]: 34 µM
IC50 (NMDA receptor; [2]): 5.1 µM

CCNC[C@H](C)C(c1cccc(F)c1)c1cccc(F)c1 [Compound 39]
IC50 [1]: 2.9 µM
IC50 (NMDA receptor; [2]): 0.251 µM

NCCC1c2ccccc2CCc2ccc(F)cc21 (stereo not drawn) [Compound 197, 3-Fluoro-10,11-dihydro-5-(2-aminoethyl)-5H-dibenzo[a,d]cycloheptene hydrochloride]
IC50 [1]: 0.053 µM

NCCC(c1ccccc1)c1cccc(F)c1 (stereo not drawn) [Compound 32, 3-(3-fluorophenyl)-3-phenyl-1-propylamine]
IC50 [1]: 0.799 µM
IC50 (NMDA receptor; [2]): 0.284 µM

CN(C)CCCN1c2ccccc2CCc2ccccc21 [Imipramine, reference compound]
IC50 [1]: 6.75 µM

COc1ccc(F)cc1C(CCN)c1cccc(F)c1 (stereo not drawn) [Compound 61, 3-(3-fluorophenyl)-3-(3-fluoro-6-methoxyphenyl)-1-propylamine]
IC50 [1]: 0.324 µM
IC50 (NMDA receptor; [2]): 0.134 µM

COc1ccc(C(CC(C)N)c2ccccc2)cc1 (stereo not drawn) [Astra compound, reference compound]
IC50 (NMDA receptor; [2]): > 30 µM

COc1ccccc1CC(=O)NC(CC(N)=O)C(=O)NCCCCCNCCCNCCCNC(=O)C(N)CCCCN (stereo not drawn) [Compound 8]
IC50 [1]: 219 µM
IC50 (NMDA receptor; [2]): 0.099 µM

N=C(N)NCCCC(N)C(=O)NCCCNCCCNCCCCCNC(=O)C(CC(N)=O)NC(=O)Cc1ccccc1O (stereo not drawn) [Compound 10]
% inhibition of [3H]MK-801 binding at the stated concentration (IC50 study incomplete) ([1]; at 80 μM): (57% at 80 μM)^d
IC50 (NMDA receptor; [2]): 0.082 µM

c1ccc(C(CCNC(c2ccccc2)C2CC2)c2ccccc2)cc1 (stereo not drawn) [Compound 171]
IC50 [1]: 39.6 µM
IC50 (NMDA receptor; [2]): 0.31 µM

CN(C)CCC=C1c2ccccc2C=Cc2ccccc21 [Cyclobenzaprine, reference compound]
IC50 [1]: 14.5 µM

CN(CCC(c1cccc(F)c1)c1cccc(F)c1)Cc1ccccc1 [Compound 105]
IC50 [1]: > 3 µM
IC50 (NMDA receptor; [2]): 1.03 µM

CN(C)CCC(Oc1ccc2c(c1)CCCC2)c1ccc(C#N)cc1 (stereo not drawn) [Novo-Nordisk compound^d, reference compound]
IC50 (NMDA receptor; [2]): 28.8 µM

CCC(CN)C(c1cccc(F)c1)c1cccc(F)c1 (stereo not drawn) [Compound 55, 3,3-bis(3-fluorophenyl)-2-ethyl-1-propylamine]
IC50 [1]: 0.153 µM
IC50 (NMDA receptor; [2]): 0.035 µM

NCCC(c1cccc(C(F)(F)F)c1)c1cccc(C(F)(F)F)c1 [Compound 78, 3,3-bis[3-(trifluoromethyl)phenyl]-1-propylamine]
IC50 (NMDA receptor; read-out: IC50 (μM) vs. NMDA; NMDA/glycine-induced increases in intracellular calcium, cultured rat cerebellar granule cells): 10.2 µM

NCCC(c1ccncc1)c1cccc(F)c1 (stereo not drawn) [Compound 79]
IC50 [1]: 10.2 µM
IC50 (NMDA receptor; [2]): 12.6 µM

NCCc1ccccc1Cc1cccc(F)c1 [Compound 130]
IC50 (NMDA receptor; [2]): 0.851 µM

NCCC1c2cc(F)ccc2CCc2ccc(F)cc21 [Compound 195, 3,7-Difluoro-10,11-dihydro-5-(2-aminoethyl)-5H-dibenzo[a,d]cycloheptene hydrochloride]
IC50 [1]: 0.029 µM

CCC(NCCC(c1ccccc1)c1ccccc1)c1cccc([N+](=O)[O-])c1 (stereo not drawn) [Compound 170]
IC50 [1]: 57 µM
IC50 (NMDA receptor; [2]): 0.238 µM

NCCC(c1ccc(F)cc1)c1ccccc1F (stereo not drawn) [Compound 76, 3-(2-fluorophenyl)-3-(4-fluorophenyl)-1-propylamine]
IC50 (NMDA receptor; [2]): 0.73 µM

COc1ccccc1CC(=O)NC(Cc1ccccc1)C(=O)NCCCCCNCCCNCCCNC(=O)C(N)CCCNC(=N)N (stereo not drawn) [Compound 6]
% inhibition of [3H]MK-801 binding at the stated concentration (IC50 study incomplete) ([1]; at 100 μM): (0% at 100 μM)^d
IC50 [1]: > 100 µM
IC50 (NMDA receptor; [2]): 0.129 µM

C[C@@H](NCCC(c1ccccc1)c1ccccc1)c1ccccc1 [(R)-fendiline, reference compound]
IC50 (NMDA receptor; [2]): 0.719 µM

NCCC1c2cccc(F)c2CCc2c(F)cccc21 [Compound 193]
activity vs. [3H]MK-801 binding ([1]; @ 1 μM): inactive @ 1 μM

COc1cccc(C(=CCN)c2cccc(OC)c2)c1 [Compound 116, 3,3-bis(3-methoxyphenyl)-prop-2-ene-1-amine]
IC50 (NMDA receptor; [2]): 3.6 µM and 4.47 µM

CN(C)CCC(c1ccccc1)c1ccccc1 [Compound 73, N,N-dimethyl-3,3-diphenylpropylamine]
IC50 (NMDA receptor; [2]): 12.6 µM

CNCCC(c1cccc(F)c1)c1ccc(OC)c(F)c1 (racemic) [Compound 174, (R,S)-N-Methyl-3-(3-fluoro-4-methoxy)-3-(3-fluorophenyl)propyl amine maleate]
IC50 [1]: 57 µM

NCC[C@H](c1cccc(F)c1)c1ccc(O)c(F)c1 (racemic) [Compound 175, (R,S)-3-(3-Fluoro-4-hydroxy)-3-(3-fluorophenyl)propylamine maleate]
IC50 [1]: 5.1 µM

Cc1cccc(C)c1NC(=O)CN1CCN(CCCC(c2ccc(F)cc2)c2ccc(F)cc2)CC1 [lidoflazine, reference compound]
IC50 (NMDA receptor; [2]): > 30 µM

NCCCCC(c1ccccc1)c1ccccc1 [Compound 71, 5,5-diphenylpentylamine]
IC50 (NMDA receptor; [2]): 6.35 µM and 6.4 µM

CN(C)CCC=C1c2ccccc2CCc2ccccc21 [Amitriptyline, reference compound]
IC50 [1]: 14.2 µM

NCCCC(c1ccccc1)c1ccccc1 [Compound 70, 4,4-diphenylbutylamine]
IC50 (NMDA receptor; [2]): 1.7 µM

COc1ccccc1OC(CCN)c1ccccc1 (stereo not drawn) [Compound 178]
IC50 [1]: 1.25 µM

NCCC1c2cc(F)ccc2CCc2c(F)cccc21 (stereo not drawn) [Compound 194]
IC50 [1]: 0.371 µM

CN(C)CCN(Cc1ccc(Cl)cc1)c1ccccn1 [chloropyramine, reference compound]
IC50 (NMDA receptor; [2]): 76 µM

CN(C)CCC(c1ccc(Cl)cc1)c1ccccn1 (stereo not drawn) [chlorpheniramine, reference compound]
IC50 (NMDA receptor; [2]): > 100 µM

CCN(CC)CCC(c1ccccc1)c1ccccc1 [Compound 74, N,N-diethyl-3,3-diphenylpropylamine]
IC50 (NMDA receptor; [2]): 27.5 µM

NCCC1c2ccccc2CCc2c(F)cccc21 (stereo not drawn) [Compound 196]
IC50 [1]: 2.24 µM

Cc1ccccc1OC(CCN)c1ccccc1 (stereo not drawn) [Compound 177]
IC50 [1]: 0.754 µM

CNCCCN1c2ccccc2CCc2ccccc21 [desipramine, reference compound]
IC50 [1]: 3.26 µM

OC(CCN1CCCCC1)(c1ccccc1)c1ccccc1 [pridinol, reference compound]
IC50 (NMDA receptor; [2]): 10.7 µM

NCCc1ccccc1Cc1ccccc1F [Compound 129]
IC50 (NMDA receptor; [2]): 1.26 µM

CN(C)CCCN1c2ccccc2Sc2ccc(Cl)cc21 [Chlorpromazine, reference compound]
IC50 [1]: 11.2 µM

OC(CCN1CCCCC1)(c1ccccc1)C1CCCCC1 (stereo not drawn) [trihexyphenidyl, reference compound]
IC50 (NMDA receptor; [2]): 5.13 µM

CN1CCN(C(c2ccccc2)c2ccccc2)CC1 [cyclizine, reference compound]
IC50 (NMDA receptor; [2]): 28 µM

CN(C)C/C=C(/c1ccc(Br)cc1)c1cccnc1 [zimeldine, reference compound]
IC50 (NMDA receptor; [2]): ≥ 26 µM

CN1CCN(C(c2ccccc2)c2ccc(Cl)cc2)CC1 (stereo not drawn) [chlorcyclizine, reference compound]
IC50 (NMDA receptor; [2]): ~10 µM

CCNCCC(c1ccccc1)c1ccccc1 [Compound 68, N-ethyl-3,3-diphenylpropylamine]
IC50 (NMDA receptor; [2]): 2.9 µM

CC(C)N(CCC(C(N)=O)(c1ccccc1)c1ccccn1)C(C)C (stereo not drawn) [disopyramide, reference compound]
IC50 (NMDA receptor; [2]): > 100 µM

CC(C)NCCC(c1ccccc1)c1ccccc1 [Compound 72, N-isopropyl-3,3-diphenylpropylamine]
IC50 (NMDA receptor; [2]): 7.4 µM

NCCCOCCCCOCCCNC(=O)Cc1cc(Br)ccc1O [Compound 15]
IC50 (NMDA receptor; [2]): 4.9 µM

CN(C)CCOC(C)(c1ccccc1)c1ccccn1 (stereo not drawn) [doxylamine, reference compound]
IC50 (NMDA receptor; [2]): 62 µM

C[C@H](NCCC(c1ccccc1)c1ccccc1)c1ccccc1 [(S)-fendiline, reference compound]
IC50 (NMDA receptor; [2]): 0.686 µM

CNCCC(c1cccc(F)c1)c1ccc(O)c(F)c1 (racemic) [Compound 176, (R,S)-N-Methyl-3-(3-fluoro-4-hydroxy)-3-(3-fluorophenyl)propyl amine hydrochloride]
IC50 [1]: 10 µM

COc1cccc(/C(=C\CN)c2cccc(Cl)c2)c1 [Compound 143]
IC50 (NMDA receptor; [2]): 2.82 µM

NCCc1ccccc1Cc1ccc(F)cc1 [Compound 131]
IC50 (NMDA receptor; [2]): 1.23 µM

CN(C)CCC(c1ccc(Br)cc1)c1ccccn1 (stereo not drawn) [brompheniramine, reference compound]
IC50 (NMDA receptor; [2]): 138 µM

CC(C)[N+](C)(CCC(C(N)=O)(c1ccccc1)c1ccccc1)C(C)C [isopropamide, reference compound]
IC50 (NMDA receptor; [2]): 87 µM

O=c1[nH]c2ccccc2n1C1CCN(CCCC(c2ccc(F)cc2)c2ccc(F)cc2)CC1 [pimozide, reference compound]
IC50 (NMDA receptor; [2]): > 10 µM

NCCC(c1ccccc1)C1CCCCC1 (stereo not drawn) [Compound 75]
IC50 (NMDA receptor; [2]): 0.94 µM
